According to PMC3260785 (The Journal of Physical Chemistry. B, 2011):

Biological target: T1, Formate dehydrogenase (FDH, Candida boidinii) ([Candida] boidinii, UniProt O13437)
T1 sequence (O13437 1-364): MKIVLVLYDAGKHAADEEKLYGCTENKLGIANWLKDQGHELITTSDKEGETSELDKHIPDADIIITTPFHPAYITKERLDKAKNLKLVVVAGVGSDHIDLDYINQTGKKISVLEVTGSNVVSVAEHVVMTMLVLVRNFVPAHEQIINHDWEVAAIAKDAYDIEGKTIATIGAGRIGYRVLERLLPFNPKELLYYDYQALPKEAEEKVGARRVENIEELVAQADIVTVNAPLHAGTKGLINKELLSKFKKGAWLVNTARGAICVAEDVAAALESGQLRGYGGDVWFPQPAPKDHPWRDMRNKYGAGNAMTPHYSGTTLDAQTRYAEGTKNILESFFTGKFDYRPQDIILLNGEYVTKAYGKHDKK
Test: isothermal titration calorimetry
Assay type: binding

[N-]=[N+]=NCc1ccc[n+]([C@@H]2O[C@H](COP(=O)(O)OP(=O)(O)OC[C@H]3O[C@@H](n4cnc5c(N)ncnc54)[C@H](O)[C@@H]3O)[C@@H](O)[C@H]2O)c1 [PAAD^+]
Kd: 7 µM
